Measurements taken from patent US7250442B2, “Dihydroindol-2-one derivatives as steroid hormone nuclear receptor modulators” (Eli Lilly and Company, priority 2003, dated 2007).

molecular target: T1, human MR (Homo sapiens, UniProt P08235); assay: Mineralocorticoid Receptor Binding Assay ([3H]-aldosterone displacement); conditions: full length human MR expressed in Sf9 cells, 0.5 nM [3H]-aldosterone
T1 construct: The full length human MR gene is cloned from a human kidney or human brain cDNA library; made in house; host or cells: Sf9 insect cells (baculovirus, pAcHLT transfer vector)
T1 sequence (P08235 1-984): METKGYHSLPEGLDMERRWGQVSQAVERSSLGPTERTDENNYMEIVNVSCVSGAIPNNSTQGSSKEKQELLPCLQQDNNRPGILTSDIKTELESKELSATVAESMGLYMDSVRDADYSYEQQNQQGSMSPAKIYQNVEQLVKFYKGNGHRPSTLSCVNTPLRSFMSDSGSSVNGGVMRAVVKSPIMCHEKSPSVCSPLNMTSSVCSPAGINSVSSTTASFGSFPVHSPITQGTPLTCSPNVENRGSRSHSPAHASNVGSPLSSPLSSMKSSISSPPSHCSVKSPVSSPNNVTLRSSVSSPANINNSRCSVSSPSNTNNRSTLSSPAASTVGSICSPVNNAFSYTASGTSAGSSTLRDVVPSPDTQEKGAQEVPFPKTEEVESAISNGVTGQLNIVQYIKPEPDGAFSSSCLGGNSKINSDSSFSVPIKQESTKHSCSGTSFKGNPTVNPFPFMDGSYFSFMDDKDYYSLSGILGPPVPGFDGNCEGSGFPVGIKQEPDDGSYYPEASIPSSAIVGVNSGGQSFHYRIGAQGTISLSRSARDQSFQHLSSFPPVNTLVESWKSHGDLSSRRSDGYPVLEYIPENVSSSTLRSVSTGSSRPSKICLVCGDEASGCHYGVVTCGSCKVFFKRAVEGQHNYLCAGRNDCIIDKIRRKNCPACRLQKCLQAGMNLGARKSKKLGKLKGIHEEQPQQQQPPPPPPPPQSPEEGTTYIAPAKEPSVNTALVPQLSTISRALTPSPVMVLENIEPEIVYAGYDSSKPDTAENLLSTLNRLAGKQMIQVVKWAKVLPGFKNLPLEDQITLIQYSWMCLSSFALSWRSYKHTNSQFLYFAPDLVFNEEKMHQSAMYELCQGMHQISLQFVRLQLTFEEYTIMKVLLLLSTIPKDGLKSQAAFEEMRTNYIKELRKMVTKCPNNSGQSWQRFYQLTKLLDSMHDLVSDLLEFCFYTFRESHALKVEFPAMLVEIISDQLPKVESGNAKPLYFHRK
In short: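 Full-length human MR expressed in Sf9 cells; lysate (20-25 μg protein) incubated with 0.5 nM [3H]-aldosterone and test compound in molybdate/Tris/phosphate/glycerol buffer pH 7.5, 16 h at 4 °C. Bound ligand measured by filtration and scintillation counting; IC50 converted to Ki via Cheng-Prusoff.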

Ki, ≤ 500 nM:
Cc1cc(C2(c3cc(C)c(O)c(C)c3)C(=O)N(Cc3ccc(OCc4ccccc4)cc3)c3ccccc32)cc(C)c1O [Example 74, 1-(4-Benzyloxy-benzyl)-3,3-bis-(4-hydroxy-3,5-dimethyl-phenyl)-1,3-dihydro-indol-2-one]
Cc1cc(C2(c3cc(C)c(O)c(C)c3)C(=O)N(c3ccccc3Cl)c3ccccc32)cc(C)c1O [Example 129, 1-(2-Chloro-phenyl)-3,3-bis-(4-hydroxy-3,5-dimethyl-phenyl)-1,3-dihydro-indol-2-one]
Cc1cc(C2(c3ccc(O)c(C)c3)C(=O)N(Cc3ccccc3)c3ccccc32)ccc1O [Example 12, 1-Benzyl-3,3-bis-(4-hydroxy-3-methyl-phenyl)-1,3-dihydro-indol-2-one]
Cc1cc(C2(c3cc(C)c(O)c(C)c3)C(=O)N(Cc3ccccc3OC(F)F)c3ccccc32)cc(C)c1O [Example 79, 1-(2-Difluoromethoxy-benzyl)-3,3-bis-(4-hydroxy-3,5-dimethyl-phenyl)-1,3-dihydro-indol-2-one]
Cc1cc(C2(c3cc(C)c(O)c(C)c3)C(=O)N(Cc3c(F)cccc3Cl)c3ccccc32)cc(C)c1O [Example 76, 1-(2-Chloro-6-fluoro-benzyl)-3,3-bis-(4-hydroxy-3,5-dimethyl-phenyl)-1,3-dihydro-indol-2-one]
Cc1cc(C2(c3cc(C)c(O)c(C)c3)C(=O)N(Cc3ccccc3-c3ccccc3)c3ccccc32)cc(C)c1O [Example 54, 1-Biphenyl-2-ylmethyl-3,3-bis-(4-hydroxy-3,5-dimethyl-phenyl)-1,3-dihydro-indol-2-one]
COC(=O)c1ccc(CN2C(=O)C(c3cc(C)c(O)c(C)c3)(c3cc(C)c(O)c(C)c3)c3ccccc32)cc1 [Example 3, 4-[3,3-Bis-(4-hydroxy-3,5-dimethyl-phenyl)-2-oxo-2,3-dihydro-indol-1-ylmethyl]-benzoic acid methyl ester]
Cc1cc(C2(c3ccc(O)cc3)C(=O)N(Cc3ccccc3Cl)c3ccccc32)cc(C)c1O (stereo not shown) [Example 36, 1-(2-Chloro-benzyl)-3-(4-hydroxy-3,5-dimethyl-phenyl)-3-(4-hydroxy-phenyl)-1,3-dihydro-indol-2-one]
Cc1cc(C2(c3cc(C)c(O)c(C)c3)C(=O)N(Cc3ccc(F)cc3F)c3ccccc32)cc(C)c1O [Example 43, 1-(2,4-Difluoro-benzyl)-3,3-bis-(4-hydroxy-3,5-dimethyl-phenyl)-1,3-dihydro-indol-2-one]
Cc1cc(C2(c3cc(C)c(O)c(C)c3)C(=O)N(Cc3ccc(-c4csnn4)cc3)c3ccccc32)cc(C)c1O [Example 84, 3,3-Bis-(4-hydroxy-3,5-dimethyl-phenyl)-1-(4-[1,2,3]thiadiazol-4-yl-benzyl)-1,3-dihydro-indol-2-one]
CC(C)=CCN1C(=O)C(c2cc(C)c(O)c(C)c2)(c2cc(C)c(O)c(C)c2)c2ccccc21 [Example 102, 3,3-Bis-(4-hydroxy-3,5-dimethyl-phenyl)-1-(3-methyl-but-2-enyl)-1,3-dihydro-indol-2-one]
COc1ccc(CN2C(=O)C(c3cc(C)c(O)c(C)c3)(c3cc(C)c(O)c(C)c3)c3ccccc32)cc1 [Example 1, 3,3-Bis-(4-hydroxy-3,5-dimethyl-phenyl)-1-(4-methoxy-benzyl)-1,3-dihydro-indol-2-one]
Cc1cc(C2(c3cc(C)c(O)c(C)c3)C(=O)N(Cc3cccc(C)c3F)c3ccccc32)cc(C)c1O [Example 70, 1-(2-Fluoro-3-methyl-benzyl)-3,3-bis-(4-hydroxy-3,5-dimethyl-phenyl)-1,3-dihydro-indol-2-one]
